“And” between values parts separate entries of the source, which are not always exact repeats. Identical values can stand only once. Inconclusive results and toxic doses are left out.
Test system: P388 leukemia ip, CD2F1 mice, survival T/C
Test: NCI In Vivo Anticancer Drug Screen. Data for tumor model P388 Leukemia (intraperitoneal) in CD2F1 (CDF1) mice
Settings: endpoint: median survival time, higher = longer survival
Procedure, shortened: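 Mice carrying the transplanted tumor received test compound or vehicle. Survival was recorded in each group, and the value is the treated-group measurement divided by that of the vehicle-treated control group.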

[1] = dose: 50.0 mg/kg/injection, schedule: Q01DX005 (ip), vehicle: saline with Tween-80
[2] = dose: 100.0 mg/kg/injection, schedule: Q01DX005 (ip), vehicle: saline with Tween-80
[3] = dose: 200.0 mg/kg/injection, schedule: Q01DX005 (ip), vehicle: saline with Tween-80
[4] = dose: 50.0 mg/kg/injection, schedule: Q01DX009 (ip), vehicle: saline
[5] = dose: 100.0 mg/kg/injection, schedule: Q01DX009 (ip), vehicle: saline
[6] = dose: 50.0 mg/kg/injection, schedule: Q01DX009 (ip), vehicle: Klucel (hydroxypropylcellulose) (HPC)
[7] = dose: 200.0 mg/kg/injection, schedule: Q01DX009 (ip), vehicle: Klucel (hydroxypropylcellulose) (HPC)
[8] = dose: 12.5 mg/kg/injection, schedule: Q01DX005 (ip), vehicle: Klucel (hydroxypropylcellulose) (HPC)
[9] = dose: 60.0 mg/kg/injection, schedule: Q01DX005 (ip), vehicle: saline with Tween-80
[10] = dose: 120.0 mg/kg/injection, schedule: Q01DX005 (ip), vehicle: saline with Tween-80
[11] = dose: 50.0 mg/kg/injection, schedule: Q01DX005 (ip), vehicle: Klucel (hydroxypropylcellulose) (HPC)
[12] = dose: 100.0 mg/kg/injection, schedule: Q01DX005 (ip), vehicle: Klucel (hydroxypropylcellulose) (HPC)
[13] = dose: 240.0 mg/kg/injection, schedule: Q01DX005 (ip), vehicle: saline with Tween-80

COc1ccc2[nH]c(=O)c(C(C)=O)c(O)c2c1
T/C [1]: 103 % of control
T/C [2]: 105 % of control
T/C [3]: 101 % of control

CCOC(C#CC(C)=O)OCC
T/C (dose: 60.0 mg/kg/injection, schedule: Q01DX005 (ip), vehicle: saline): 106 % of control
T/C (dose: 120.0 mg/kg/injection, schedule: Q01DX005 (ip), vehicle: saline): 103 % of control
T/C (dose: 240.0 mg/kg/injection, schedule: Q01DX005 (ip), vehicle: saline): 103 % of control

CN(C)CCOc1ccccn1
T/C [4]: 98 % of control
T/C [5]: 101 % of control

CC(=O)Nc1ccc(NC(=S)Nc2ccccc2C(F)(F)F)cc1
T/C [6]: 96 % of control
T/C (dose: 100.0 mg/kg/injection, schedule: Q01DX009 (ip), vehicle: Klucel (hydroxypropylcellulose) (HPC)): 92 % of control
T/C [7]: 87 % of control

CCc1c(CNc2ccc(Cl)c(Cl)c2)ccc2nc(N)nc(N)c12
T/C [8]: 109 % of control

O=C1C2C3C=CC(O3)C2C(=O)N1CCN1CCCCC1 (stereo not drawn)
T/C (dose: 50.0 mg/kg/injection, schedule: Q01DX005 (ip), vehicle: other): 97 % of control
T/C (dose: 100.0 mg/kg/injection, schedule: Q01DX005 (ip), vehicle: other): 91 % of control

O=C(O)CCCSC(=S)c1ccccc1
T/C (dose: 12.5 mg/kg/injection, schedule: Q01DX009 (ip), vehicle: Klucel (hydroxypropylcellulose) (HPC)): 102 % of control
T/C (dose: 25.0 mg/kg/injection, schedule: Q01DX009 (ip), vehicle: Klucel (hydroxypropylcellulose) (HPC)): 100 % of control
T/C [6]: 98 % of control and 105 % of control
T/C [7]: 101 % of control

O=C(O)/C(Cl)=C(\Cl)C(=O)Nc1cccc([N+](=O)[O-])c1
T/C (dose: 7.5 mg/kg/injection, schedule: Q01DX005 (ip), vehicle: saline with Tween-80): 100 % of control
T/C (dose: 15.0 mg/kg/injection, schedule: Q01DX005 (ip), vehicle: saline with Tween-80): 101 % of control
T/C [9]: 100 % of control and 103 % of control
T/C [10]: 106 % of control

CCN(CC)C1=Nc2ccccc2N(c2ccccc2)C(N2CCCCC2)=C1
T/C (dose: 12.5 mg/kg/injection, schedule: Q04DX002 (ip), vehicle: Klucel (hydroxypropylcellulose) (HPC)): 99 % of control
T/C (dose: 25.0 mg/kg/injection, schedule: Q04DX002 (ip), vehicle: Klucel (hydroxypropylcellulose) (HPC)): 99 % of control
T/C (dose: 50.0 mg/kg/injection, schedule: Q04DX002 (ip), vehicle: Klucel (hydroxypropylcellulose) (HPC)): 101 % of control

Cc1cc(Cl)cc(C(=O)c2ccccc2)c1OC(N)=O
T/C [11]: 101 % of control
T/C [12]: 103 % of control
T/C (dose: 200.0 mg/kg/injection, schedule: Q01DX005 (ip), vehicle: Klucel (hydroxypropylcellulose) (HPC)): 106 % of control

COC(=O)CC1(O)C(=O)OCc2c1cc1n(c2=O)Cc2c-1nc1ccccc1c2OC (stereo not drawn)
T/C (dose: 12.5 mg/kg/injection, schedule: Q01DX009 (ip), vehicle: saline): 167 % of control
T/C [4]: 194 % of control
T/C [5]: 150 % of control and 184 % of control
T/C (dose: 100.0 mg/kg/injection, schedule: Q01DX009 (ip), vehicle: suspension in saline): 86 % of control

Cc1ccc(CNc2ccc(I)cc2)cc1
T/C (dose: 100.0 mg/kg/injection, schedule: Q01DX009 (ip), vehicle: other): 104 % of control
T/C (dose: 200.0 mg/kg/injection, schedule: Q01DX009 (ip), vehicle: other): 95 % of control
T/C (dose: 400.0 mg/kg/injection, schedule: Q01DX009 (ip), vehicle: other): 95 % of control

c1ccc([I+]c2ccccc2)cc1
T/C (dose: 0.65 mg/kg/injection, schedule: Q01DX009 (ip), vehicle: saline): 95 % of control
T/C (dose: 1.25 mg/kg/injection, schedule: Q01DX009 (ip), vehicle: saline sonified): 100 % of control
T/C (dose: 1.3 mg/kg/injection, schedule: Q01DX009 (ip), vehicle: saline): 90 % of control
T/C (dose: 1.56 mg/kg/injection, schedule: Q01DX009 (ip), vehicle: saline with Tween-80): 103 % of control
T/C (dose: 2.5 mg/kg/injection, schedule: Q01DX009 (ip), vehicle: saline sonified): 118 % of control
T/C (dose: 2.5 mg/kg/injection, schedule: Q01DX009 (ip), vehicle: saline): 109 % of control
T/C (dose: 2.6 mg/kg/injection, schedule: Q01DX009 (ip), vehicle: saline with Tween-80): 106 % of control
T/C (dose: 3.13 mg/kg/injection, schedule: Q01DX009 (ip), vehicle: saline sonified): 100 % of control
T/C (dose: 3.13 mg/kg/injection, schedule: Q01DX009 (ip), vehicle: saline with Tween-80): 108 % of control
T/C (dose: 3.13 mg/kg/injection, schedule: Q04DX003 (ip), vehicle: saline): 100 % of control
T/C (dose: 4.0 mg/kg/injection, schedule: Q01DX009 (ip), vehicle: saline with Tween-80): 113 % of control
T/C (dose: 6.0 mg/kg/injection, schedule: Q01DX009 (ip), vehicle: saline with Tween-80): 113 % of control
T/C (dose: 6.25 mg/kg/injection, schedule: Q01DX009 (ip), vehicle: saline with Tween-80): 122 % of control and 91 % of control
T/C (dose: 6.25 mg/kg/injection, schedule: Q04DX003 (ip), vehicle: saline): 118 % of control
T/C (dose: 12.5 mg/kg/injection, schedule: Q04DX003 (ip), vehicle: saline): 118 % of control

CCON1C(=O)C(C)c2ccccc21 (stereo not drawn)
T/C [9]: 98 % of control
T/C [10]: 102 % of control
T/C [13]: 102 % of control

O=C1NC(=O)N(c2ccccc2)C(=O)/C1=C/c1ccc2c(c1)CCC2
T/C (dose: 60.0 mg/kg/injection, schedule: Q01DX005 (ip), vehicle: Klucel (hydroxypropylcellulose) (HPC)): 95 % of control
T/C (dose: 120.0 mg/kg/injection, schedule: Q01DX005 (ip), vehicle: Klucel (hydroxypropylcellulose) (HPC)): 97 % of control
T/C (dose: 240.0 mg/kg/injection, schedule: Q01DX005 (ip), vehicle: Klucel (hydroxypropylcellulose) (HPC)): 108 % of control

CC(=O)O[C@@H]1C[C@@]2(C)C(CC(=O)[C@@H](C)[C@@H]2CC(=O)c2ccoc2)[C@@H](CO)[C@@H]1O (stereo partly drawn)
T/C [8]: 103 % of control
T/C (dose: 25.0 mg/kg/injection, schedule: Q01DX005 (ip), vehicle: Klucel (hydroxypropylcellulose) (HPC)): 100 % of control
T/C [11]: 109 % of control
T/C [12]: 106 % of control
T/C (dose: 100.0 mg/kg/injection, schedule: Q01DX005 (ip), vehicle: Klucel + Tween-80): 107 % of control
T/C (dose: 200.0 mg/kg/injection, schedule: Q01DX005 (ip), vehicle: Klucel + Tween-80): 107 % of control
T/C (dose: 400.0 mg/kg/injection, schedule: Q01DX005 (ip), vehicle: Klucel + Tween-80): 101 % of control

CCCCCCCCCc1ccc(OC(C)OCCOCCOCC)cc1 (stereo not drawn)
T/C [9]: 98 % of control
T/C [10]: 98 % of control
T/C [13]: 98 % of control

S=C([S-])N1CC[n+]2c(-c3ccccc3)csc21
T/C [4]: 101 % of control
T/C [5]: 100 % of control
T/C (dose: 200.0 mg/kg/injection, schedule: Q01DX009 (ip), vehicle: saline): 91 % of control

CC(=O)Oc1ccc(CO)cc1OC(C)=O
T/C (dose: 50.0 mg/kg/injection, schedule: Q01DX005 (ip), vehicle: saline): 101 % of control and 102 % of control
T/C (dose: 100.0 mg/kg/injection, schedule: Q01DX005 (ip), vehicle: saline): 106 % of control and 108 % of control

CC(=O)Nc1c(-c2ccccc2)[nH]c2ccccc12
T/C (dose: 100.0 mg/kg/injection, schedule: Q01DX001 (ip), vehicle: saline with Tween-80): 99 % of control

Nc1nnc2cccc(Cl)n12
T/C (dose: 100.0 mg/kg/injection, schedule: Q01DX001 (ip), vehicle: Klucel (hydroxypropylcellulose) (HPC)): 98 % of control
T/C (dose: 200.0 mg/kg/injection, schedule: Q01DX001 (ip), vehicle: Klucel (hydroxypropylcellulose) (HPC)): 96 % of control
T/C (dose: 400.0 mg/kg/injection, schedule: Q01DX001 (ip), vehicle: Klucel (hydroxypropylcellulose) (HPC)): 99 % of control

COc1c2occc2c(N=Cc2c[nH]c3ccccc23)c2ccc(=O)oc12
T/C [1]: 92 % of control
T/C [2]: 93 % of control
T/C [3]: 86 % of control

Cc1cc2nc(C/C(=N/O)c3ccncc3)c(C/C(=N/O)c3ccncc3)nc2cc1C
T/C [9]: 93 % of control
T/C [10]: 91 % of control

CN(C)CCN1c2ccccc2Sc2ccc3ccccc3c21
T/C (dose: 50.0 mg/kg/injection, schedule: Q01DX005 (ip), vehicle: saline + Tween-80 + alcohol): 104 % of control
T/C (dose: 100.0 mg/kg/injection, schedule: Q01DX005 (ip), vehicle: saline + Tween-80 + alcohol): 107 % of control
T/C (dose: 200.0 mg/kg/injection, schedule: Q01DX005 (ip), vehicle: saline + Tween-80 + alcohol): 107 % of control
